Measured values from US7220784B2, “Substituted stilbenes and their reactions” (priority 2000, dated 2007).
pIC50: −log10 of the molar value. Where “and” joins values, the source holds several entries; their conditions need not be identical. Equal values may be shown once. Read-outs that look alike come from different tables or passages of the source.

Assays:
tubulin = tested on: T1, tubulin; test: Inhibition of tubulin assembly; assay type: biochemical; conditions: concentration required to reduce assembly of tubulin by 50%
T1 construct: other: concentration required to reduce assembly of tubulin by 50%
Method: (§1) The following assays (1–5) were carried out as described in our paper (Woods, et al, British Journal of Cancer, 71, 705–711 (1995)). In addition to the cell lines described in this paper, other established human cell lines (K562, HUVEC, H460, BE, H529, and HT29) were used in the cytotoxicity/growth inhibition assay. • (1) Inhibition of tubulin assembly. The figure quoted is the concentration required to reduce assembly of tubulin by 50%. Tubulin assembly is monitored by light scatter/absorption at 350 nm.

[1] = tested on: K562 human myelogeneous leukaemia cell line; test: Cytotoxicity/growth inhibition assay (MTT), K562; assay type: cell-based; conditions: Homo sapiens, K562; MTT; read-out: K562 IC50
How it was run: (§2)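 Growth inhibition of P388 murine and K562 human leukaemia cells measured by MTT assay.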

A2780 = test: Cytotoxicity/growth inhibition assay (MTT), A2780; assay type: cell-based; conditions: for pIC50: read-out: A2780 IC50
How it was run: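 MTT cytotoxicity/growth-inhibition assay in human cell lines including A2780, A2780/ADR, H460 and HUVEC.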

HUVEC = test: Growth inhibition studies using HUVEC; assay type: cell-based, human
Method: as §1
(§3) (2) Competition for the colchicine binding site on tubulin. The figure quoted represents the % of ^3H-colchicine bound following co-incubation of test compound and ^3H-cochicine with isolated tubulin. Where ester pro-drugs were used the experiments were carried out in the presence and absence of porcine liver esterase. • (3) Cytotoxicity/growth inhibition assay. This was carried out by the MTT assay. • (4) Permeability (shape-change) assay in endothelial cells. This was carried out using a method based on that of Watts et al. (Anticancer Res., 17, 71–75, (1997)). This involved the diffusion of a fluorescently labelled dextran through a barrier of endothelial cells (HUVEC) grown to confluence on a porous membrane. The effect of agents to alter the shape of these cells results in an increase in the permeability of the cells to the dye. The figure represents the increase in permeability over control cultures when drug is added (30 minutes, 1 mM.). • (5) Experiments to study the anti-vascular effects of these agents were carried out as described previously by our group. (Zhao et al, European Journal of Nuclear Medicine, 26, 231–238 (1999)). The anti-vascular effects of the agents were monitored by either positron emission tomography (PET) or by histologogical examination following treatment of mice bearing T50:80 murine breast tumours, or H460 human lung tumours. • (6) Anti-tumour efficacy of agents was determined in xenografts of H460 human lung cancer. Animals (n=5) were trated either with 5 daily injections and tumour size measured with time following treatment. • (7) The pharmacokinetic profile of agents was determined in mice following injection with drug. Blood was taken at various times following treatment and analysed by HPLC with UV detection. The HPLC conditions were isocratic using a 5 micron C18 BDS column (150×4.6) ad eluting with 75% MeOH in water with a detection wavelength of 290 nm. […] (AND(P)H:quinone oxidoreductace, EC 1.6.99.2). DT-diaphorase is an enzyme over-expressed in a number of human tumours. […] This two-electron reducing enzyme can be used to selectively activate prodrugs within cancers which over-express the enzyme.

[2] = tested on: P388 murine leukaemia cell line; test: Cytotoxicity/growth inhibition assay (MTT), P388; assay type: cell-based
How it was run: as §2

[3] = tested on: colchicine binding site on tubulin; test: Competition for the colchicine binding site on tubulin
[4] = tested on: H460 human lung cell line; test: Cytotoxicity/growth inhibition assay (MTT), H460; assay type: cell-based
Method: as §1, §3

[5] = tested on: H460 human lung cancer xenografts; test: Anti-tumour efficacy in xenografts of H460 human lung cancer; assay type: in vivo, mice; conditions: H460 human lung cancer xenograft
Method: (§4) (2) Competition for the colchicine binding site on tubulin. The figure quoted represents the % of ^3H-colchicine bound following co-incubation of test compound and ^3H-cochicine with isolated tubulin. Where ester pro-drugs were used the experiments were carried out in the presence and absence of porcine liver esterase. • (3) Cytotoxicity/growth inhibition assay. This was carried out by the MTT assay. • (4) Permeability (shape-change) assay in endothelial cells. This was carried out using a method based on that of Watts et al. (Anticancer Res., 17, 71–75, (1997)). This involved the diffusion of a fluorescently labelled dextran through a barrier of endothelial cells (HUVEC) grown to confluence on a porous membrane. […] The anti-vascular effects of the agents were monitored by either positron emission tomography (PET) or by histologogical examination following treatment of mice bearing T50:80 murine breast tumours, or H460 human lung tumours. • (6) Anti-tumour efficacy of agents was determined in xenografts of H460 human lung cancer. Animals (n=5) were trated either with 5 daily injections and tumour size measured with time following treatment. • (7) The pharmacokinetic profile of agents was determined in mice following injection with drug. Blood was taken at various times following treatment and analysed by HPLC with UV detection. […]

[6] = tested on: diaphorase null H596 cell line; test: Cytotoxicity/growth inhibition assay (MTT), H596; assay type: cell-based
Method: as §1
(2) Competition for the colchicine binding site on tubulin. The figure quoted represents the % of ^3H-colchicine bound following co-incubation of test compound and ^3H-cochicine with isolated tubulin. Where ester pro-drugs were used the experiments were carried out in the presence and absence of porcine liver esterase. • (3) Cytotoxicity/growth inhibition assay. This was carried out by the MTT assay. • (4) Permeability (shape-change) assay in endothelial cells. This was carried out using a method based on that of Watts et al. (Anticancer Res., 17, 71–75, (1997)). This involved the diffusion of a fluorescently labelled dextran through a barrier of endothelial cells (HUVEC) grown to confluence on a porous membrane. The effect of agents to alter the shape of these cells results in an increase in the permeability of the cells to the dye. The figure represents the increase in permeability over control cultures when drug is added (30 minutes, 1 mM.). • (5) Experiments to study the anti-vascular effects of these agents were carried out as described previously by our group. (Zhao et al, European Journal of Nuclear Medicine, 26, 231–238 (1999)). The anti-vascular effects of the agents were monitored by either positron emission tomography (PET) or by histologogical examination following treatment of mice bearing T50:80 murine breast tumours, or H460 human lung tumours. • (6) Anti-tumour efficacy of agents was determined in xenografts of H460 human lung cancer. Animals (n=5) were trated either with 5 daily injections and tumour size measured with time following treatment. • (7) The pharmacokinetic profile of agents was determined in mice following injection with drug. Blood was taken at various times following treatment and analysed by HPLC with UV detection. The HPLC conditions were isocratic using a 5 micron C18 BDS column (150×4.6) ad eluting with 75% MeOH in water with a detection wavelength of 290 nm. The retention time of 6.6 mins for 97–64H. • (8) Activation of quinone prodrugs by DT-diaphorase. (AND(P)H:quinone oxidoreductace, EC 1.6.99.2). DT-diaphorase is an enzyme over-expressed in a number of human tumours. We have recently shown this enzyme to be highly expressed in the endothelial cells of blood vessels. This two-electron reducing enzyme can be used to selectively activate prodrugs within cancers which over-express the enzyme. We have therefore synthesised quinone pro-drugs (97–96, 98–40, 98–23, 98–33, 98–24) which, upon reduction by the enzyme, produces an agent (a hydroquinone stilbene) which is cytotoxic.
A series of prodrugs capable of being activated by DT-diaphorase, an enzyme over-expressed in a wide range of human cancers and in endothelial cells of the vasculature were synthesised. The rationale for this is that these agents will be activated in situ by the tumours over-expressing the enzyme, thus giving rise to a high local concentration of active drug. This confers selectivity to this agent. These quinone prodrugs (97–96 and 98–23) were tested for their ability to act as substrates for DT-diaphorase. […] This agent may therefore have a role in the treatment of tumours that over-express DT-diaphorase. Similarly, these agents maybe selectively activated in the endothelial cells of the vasculature, thereby conferring a selective anti-vascular effect.

[7] = tested on: H460 human lung xenograft; test: Tumour damage in H460 human lung xenograft grown subcutaneously; assay type: in vivo; conditions: 0.75×MTD, i.p., twenty four hours following injection
Method: The effect of compounds 97–64H and 97–96 (quinone compound) was tested on H460 human lung xenograft grown subcutaneously by injecting equitoxic doses of the compounds (0.75×MTD).

DT-diaphorase = DT-diaphorase (Homo sapiens, UniProt P15559); test: Activation of quinone prodrugs by DT-diaphorase; assay type: biochemical; conditions: comparable to RH1
Sequence of DT-diaphorase (P15559 whole entry, species assumed): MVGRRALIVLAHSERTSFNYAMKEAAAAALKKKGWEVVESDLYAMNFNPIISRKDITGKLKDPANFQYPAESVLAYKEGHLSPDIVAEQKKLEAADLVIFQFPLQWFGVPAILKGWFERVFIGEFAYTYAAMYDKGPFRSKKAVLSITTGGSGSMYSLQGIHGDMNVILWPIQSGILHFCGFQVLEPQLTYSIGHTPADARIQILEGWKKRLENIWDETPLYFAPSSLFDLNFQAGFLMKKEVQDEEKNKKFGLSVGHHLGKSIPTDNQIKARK
Method: as §4

SMILES | melting point | IC50 (tubulin) | pIC50 (A2780) | pIC50 ([2]; MTT) | Colchicine % Inhibition [3] | also measured
COC(=O)CCOc1cc([N+](=O)[O-])c(CCc2cc(/C=C\c3cc(OC)c(OC)c(OC)c3)ccc2OC)cc1OC | 132 to 134 °C |  |  |  |  | 
COc1ccc(/C=C(/C)c2cc(OC)c(OC)c(OC)c2)cc1O [Compound 19, Z-(3′-Hydroxy-4′-methoxyphenyl)-2-(3″,4″,5″-trimethoxyphenyl)propene] | 156 to 158 °C | 1.8 µM |  |  |  | pIC50 [1]: 7.40
COc1ccc(/C=C\c2cc(C)c(C)c(C)c2)cc1O [Compound 28, (Z)-1-(3′,4′,5′-trimethylphenyl)-2-(3″-hydroxy-4″-methoxyphenyl)ethene] | 60 to 61 °C | 1.5 µM |  |  |  | pIC50 [1]: 7.68
COc1ccc(C=Cc2cc(OC)c(OC)c(OC)c2)cc1OC(=O)c1ccncc1 [Compound 96-167] |  | 9 µM | 9.43 | 9.10 | 3.8% | pIC50 (HUVEC; Homo sapiens, HUVEC): 7.40
COc1ccc(C=Cc2cc(OC)c(OC)c(OC)c2)cc1OC(=O)c1ccncc1 [Compound 97-07] |  | 10 µM | 8.83 | 8.64 | 6.6% and 12.3% | pIC50 ([4]; Homo sapiens, NCI-H460): 5.56
COc1ccc(/C=C\c2cc(OC)c(OC)c(OC)c2)cc1Oc1c(F)c(F)nc(F)c1F [Compound 97-13H] |  | > 100 µM | 7.75 | 7.49 | 84.2% | pIC50 (HUVEC): 7.35; pIC50 [4]: 7.46 to 7.49
COc1ccc(C=Cc2cc(OC)c(OC)c(OC)c2)cc1F [Compound 97-64L] |  | > 100 µM | 6.95 | 6.77 | 43% | 
COC1=CC(=O)C(/C=C\c2cc(OC)c(OC)c(OC)c2)=CC1=O [Compound 97-96, 2-Methoxy-5-[(Z)-2-(3′,4′,5′-trimethoxyphenyl)-vinyl]-[1,4]benzoquinone] |  | < 1.25 µM |  |  |  | anti-tumour activity in vivo [5]: active; pIC50 (A2780; Homo sapiens, A2780): 6.72; IC50 (A2780; Homo sapiens, A2780, read-out: IC50 (nM) A2780): 190 nM; pIC50 (HUVEC): 6.66; pIC50 (HUVEC; Homo sapiens, HUVEC): 6.64; pIC50 ([2]; Mus musculus, P388): 6.24; pIC50 ([2]; Mus musculus, P388, MTT): 6.24; pIC50 ([4]; Homo sapiens, NCI-H460): 7.42; pIC50 ([6]; Homo sapiens, NCI-H596): 6.21; H596/H460 ([6]; ratio of IC50, diaphorase null H596 over H460): 16; tumour damage [7]: extensive damage to the tumours; ability to act as substrate for DT-diaphorase (DT-diaphorase): good substrates for the enzyme
